“Also recorded” adds a separate entry of the source. Read-outs that look alike come from different tables or passages of the source.
Columns and labels:
Cyp3a11 [1] = assay: Cyp3a11 protein expression in liver microsomes of treated mice by SDS-PAGE and Western blotting; details: for Cyp3a11 expression in liver (Western blot): single injection 0, 1, 10, 50 mg/kg, 48 hours
Protocol: (§1) Dosing solutions were prepared on the day of administration by adding corn oil to the requisite quantity of test substance and stirring to obtain a solution or fine suspension. The concentration of PCN was 10 mg/ml and Rif 2.5 mg/ml of supplied chemical, without any correction for purity. Records of preparation were retained.
The volume of vehicle and solutions of inducing agents administered was 10 ml/kg bodyweight. This route of administration was chosen for consistency with previously published work. […]
(§2) Quantification of Cyp3a11, Cyp2b10 and PXR protein in liver microsomes of all mice samples was carried out by SDS-PAGE and Western blotting. To detect murine and human PXR protein, an antibody (RF8) was employed. For the identification of Cyp3a and Cyp2b, […] were used, (CH32 and CH4, respectively).

[2] = test system: components of drug metabolism pathways; details: inducer of components of drug metabolism pathways; species in which it is known to act more potently; cited from earlier work
Cyp2b10 [3] = assay: Cyp2b10 protein expression of treated mice by SDS-PAGE and Western blotting; details: for Cyp2b10 induction (Western blot and PROD activity): CITCO 10 mg/kg; for Cyp2b10 induction profile (Western blot and PROD, liver microsomes): wild-type vs huCAR mice, increasing amounts
Protocol: as §1
Control animals were administered vehicle (corn oil) daily by intraperitoneal injection. The volume of vehicle and solutions of inducing agents administered was 10 ml/kg bodyweight. This route of administration was chosen for consistency with previously published work. […]
as §2

liver cells = assay: BrdU incorporation in liver (hepatic cell proliferation, S-phase labelling index); format: in vivo, mouse; details: wild-type and huCAR mice
Cyp2b10 [4] = assay: pentoxyresorufin-O-deethylation (PROD) and BROD activity assay in liver microsomes of treated mice
[5] = Pentobarbitone sleeping test; format: in vivo, mouse; details: single ip dose 25 mg/kg
Protocol: In this experiment, the activity of these transcription factors in combination was determined by measuring the barbiturate induced sleeping time. Sleeping time has been known for many years to be directly proportional to the hepatic cytochrome P450 activity and this activity can be at least in part ascribed to the P450 levels in the liver determined by CAR and PXR function.
Mice were given a single intraperitoneal dose of Narcoren (sodium pentobarbitone; purchased via a Veterinary Consultant; distributed by Merial GmbH, Germany) at 25 mg/kg of body weight. The time taken for the mice to lose, and subsequently to regain, their righting reflex was measured.

Cyp3a11 [6] = details: wild-type mice (Ma et al. 2007); cited from earlier work
[7] = Protocol: For the same animals, plasma levels of alanine aminotransferase (ALT), alkaline phosphatase (ALP) and aspartate aminotransferase (AST) were also measured (see FIG. 40). […] Both compounds were administered at 40 mg/kg.
Plasma levels of alanine aminotransferase (ALT), alkaline phosphatase (ALP) and aspartate aminotransferase (AST) were also measured (see FIG. 46).

cytochrome P450 enzymes = details: single ip; for induction of testosterone 16-beta-hydroxylation: 1 mg/kg
Protocol: The study consisted of 3 animals per group. Control groups consisted of mice treated with either corn oil daily for 4 days or mice administered a single injection of corn oil. The treated mice were dosed with inducing agents as detailed in Table 3.1.
PXR activity was determined by measuring the metabolism of a number of cytochrome P450 substrates which are metabolised to different extents by different cytochrome P450 enzymes. The following assays were performed: • 7-benzyloxyquinoline (BQ) activity was determined in liver microsomes. • Testosterone hydroxylase activity was determined in liver microsomes (LMS HPLC-006). • The specific activities of these reactions was expressed per mg protein as determined using the Lowry assay (LMS Spec-0001).

[8] = wild type mice, TCPOBOP 1 mg/kg

Clc1ccc(-c2nc3sccn3c2C=NOCc2ccc(Cl)c(Cl)c2)cc1 [CITCO, 6-(4-chlorophenyl)imidazo[2,1-b][1,3]thiazole-5-carbaldehyde O-(3,4-dichlorobenzyl)oxime]
Cyp3a11 expression in liver (Western blot) (Cyp3a11 [1]; huCAR mice): clearly induced | Cyp3a11 expression in liver (Western blot) (Cyp3a11 [1]; wild type mice): did not induce | More potent in: [2]: human | Cyp2b10 induction (Western blot and PROD activity) (Cyp2b10 [3]; huCAR mice): strong induction | Cyp2b10 expression in liver (Western blot) (Cyp2b10 [3]; huCAR mice, single injection 0, 1, 10, 50 mg/kg, 48 hours): clearly induced | Cyp2b10 induction (Western blot and PROD activity) (Cyp2b10 [3]; koPXR mice): Some induction | Cyp2b10 expression in liver (Western blot) (Cyp2b10 [3]; wild type mice, single injection 0, 1, 10, 50 mg/kg, 48 hours): did not induce | Cyp2b10 induction (Western blot and PROD activity) (Cyp2b10 [3]; wild-type mice): not substantially induced | Cyp2b10 induction profile (Western blot and PROD, liver microsomes) (Cyp2b10 [3]): stronger response in huCAR than in the wild-type | fraction of BrdU positive cells in the liver (liver cells; 20 mg/kg 4 times daily, one day after final dose): elevated counts of BrdU positive liver cells only in huCAR animals, not in the wild-type | PROD activity (Cyp2b10 [4]; huCAR mice, increasing amounts of CITCO): marked, dose-dependent induction of PROD activity

CCCC(C)C1(CC)C(=O)NC(=O)NC1=O (stereo not shown) [pentobarbitone, sodium pentobarbitone]
Sleeping time ([5]; PXR/CAR hum (double humanised) male mouse): 34 min | Sleeping time ([5]; wt male mouse): 21 min

CC(=O)[C@H]1[C@H](C#N)C[C@H]2[C@@H]3CC=C4C[C@@H](O)CC[C@]4(C)[C@H]3CC[C@@]21C [PCN, 5-Pregnen-3β-ol-20-one-16α-carbonitrile]
More potent in: [2]: mouse | induction of Cyp3a11 mRNA (Cyp3a11 [6]): strongly induced

C[C@@H]1C[C@H]2[C@@H]3CCC4=CC(=O)C=C[C@]4(C)[C@@]3(F)[C@@H](O)C[C@]2(C)[C@@]1(O)C(=O)CO [dexamethasone]
Cyp2b10 expression (Cyp2b10 [3]; mouse, in vivo, 10 mg/kg): induced Cyp2b10 expression in both wild-type and huCAR mice | Cyp2b10 induction (Western blot), comparison (Cyp2b10 [3]; mouse, in vivo, 10 mg/kg): less pronounced in huCAR than in wild-type mice | Cyp2b10 expression in liver (Western blot) (Cyp2b10 [3]; mouse, in vivo, 40 mg/kg): still induced | induction of Cyp2b10 (Western blot) (Cyp2b10 [3]; mouse, in vivo, 60 mg/kg): induced | mortality ([7]; huPXR mice, dexamethasone 60 mg/kg): One dexamethasone-treated huPXR mouse died | increase in plasma ALT levels and liver weights ([7]; mouse, in vivo, 30 mg/kg): clearly more pronounced in mice lacking murine PXR | Cyp2b10 induction (PROD activity), comparison (Cyp2b10 [4]; huCAR vs wild type mice, 10 mg/kg): weaker in huCAR than in wild type mice | PROD activity (Cyp2b10 [4]; koCAR mice, 40 mg/kg): still induced | PROD activity (Cyp2b10 [4]; wild-type, huPXR and koPXR mice, 60 mg/kg): corresponding results were obtained

Clc1cnc(Oc2ccc(Oc3ncc(Cl)cc3Cl)cc2)c(Cl)c1 [TCPOBOP]
Cyp3a11 expression (Western blot and BQ activity) (Cyp3a11 [1]; [8]): somewhat induced | More potent in: [2]: mouse | Cyp2b10 expression (Western blot and PROD activity) (Cyp2b10 [3]; huCAR mice, TCPOBOP 1 mg/kg): did not significantly induce | Cyp2b10 induction in liver (Western blot, densitometry) (Cyp2b10 [3]; koCAR mice, 1 mg/kg): no Cyp2b10 was induced | Cyp2b10 protein expression and PROD activity (Cyp2b10 [3]; koPXR mice, TCPOBOP 1 mg/kg): comparable to wild type | Cyp2b10 expression (Western blot and PROD activity) (Cyp2b10 [3]; [8]): induced; also recorded: strongly induced | Cyp2b10 induction profile (Western blot and PROD, liver microsomes) (Cyp2b10 [3]): more strongly in the wild-type than huCAR mice | fraction of BrdU positive cells in the liver (liver cells; single dose 3 mg/kg, one day after dose): elevated counts of BrdU positive liver cells only in wild-type animals | induction of testosterone 16-beta-hydroxylation (cytochrome P450 enzymes; huPXR mice): 1.7 fold | induction of 6-beta-hydroxylation of testosterone (cytochrome P450 enzymes; wild type and huPXR mice, TCPOBOP 0.3 and 1 mg/kg): inducible in both strains of mouse | induction of testosterone 16-beta-hydroxylation (cytochrome P450 enzymes; wild type mice): approximately 6 fold | induction of testosterone 16-alpha-hydroxylation (cytochrome P450 enzymes; wild type mice, TCPOBOP 0.3 and 1 mg/kg): significantly induced

Clc1ccccc1C(c1ccccc1)(c1ccccc1)n1ccnc1 [Clotrimazole]
More potent in: [2]: mouse

Reference: patent US8624079B2, “Knockin mouse with a disruption in a PXR gene expressing human PXR” (ITI Scotland Limited, priority 2007, dated 2014)
